Test results: ChEMBL document CHEMBL4414548 (J Med Chem, 2019)
Calls of active or inactive are those of the source. No cut-off for these calls is given here.

What was measured:
[1] = AUClast in mouse at 10 mg/kg, po; assay type: ADME, organism-based; parameters: dose 10 mg/kg, route oral, time 0 - last; details: in vivo
[2] = Efflux ratio of permeability in human Caco2; assay type: ADME, cell-based; details: Caco-2
JAK2/TYK2 = JAK2/TYK2 (Homo sapiens, UniProt O60674+P29597); assay: Inhibition of TYK2/JAK2 in IL23-stimulated human Kit225 cells by steady-glo luciferase assay
[3] = target: T1, Non-receptor tyrosine-protein kinase TYK2 (Homo sapiens, UniProt P29597); assay: Inhibition of fluorescein-labeled kinase tracer binding to His-TVMV-fused TYK2 JH2 domain (575 to 869 residues) (unknown origin) measured after 90 mins by HTRF assay
T1 sequence (P29597 whole entry, the tested form may be a part): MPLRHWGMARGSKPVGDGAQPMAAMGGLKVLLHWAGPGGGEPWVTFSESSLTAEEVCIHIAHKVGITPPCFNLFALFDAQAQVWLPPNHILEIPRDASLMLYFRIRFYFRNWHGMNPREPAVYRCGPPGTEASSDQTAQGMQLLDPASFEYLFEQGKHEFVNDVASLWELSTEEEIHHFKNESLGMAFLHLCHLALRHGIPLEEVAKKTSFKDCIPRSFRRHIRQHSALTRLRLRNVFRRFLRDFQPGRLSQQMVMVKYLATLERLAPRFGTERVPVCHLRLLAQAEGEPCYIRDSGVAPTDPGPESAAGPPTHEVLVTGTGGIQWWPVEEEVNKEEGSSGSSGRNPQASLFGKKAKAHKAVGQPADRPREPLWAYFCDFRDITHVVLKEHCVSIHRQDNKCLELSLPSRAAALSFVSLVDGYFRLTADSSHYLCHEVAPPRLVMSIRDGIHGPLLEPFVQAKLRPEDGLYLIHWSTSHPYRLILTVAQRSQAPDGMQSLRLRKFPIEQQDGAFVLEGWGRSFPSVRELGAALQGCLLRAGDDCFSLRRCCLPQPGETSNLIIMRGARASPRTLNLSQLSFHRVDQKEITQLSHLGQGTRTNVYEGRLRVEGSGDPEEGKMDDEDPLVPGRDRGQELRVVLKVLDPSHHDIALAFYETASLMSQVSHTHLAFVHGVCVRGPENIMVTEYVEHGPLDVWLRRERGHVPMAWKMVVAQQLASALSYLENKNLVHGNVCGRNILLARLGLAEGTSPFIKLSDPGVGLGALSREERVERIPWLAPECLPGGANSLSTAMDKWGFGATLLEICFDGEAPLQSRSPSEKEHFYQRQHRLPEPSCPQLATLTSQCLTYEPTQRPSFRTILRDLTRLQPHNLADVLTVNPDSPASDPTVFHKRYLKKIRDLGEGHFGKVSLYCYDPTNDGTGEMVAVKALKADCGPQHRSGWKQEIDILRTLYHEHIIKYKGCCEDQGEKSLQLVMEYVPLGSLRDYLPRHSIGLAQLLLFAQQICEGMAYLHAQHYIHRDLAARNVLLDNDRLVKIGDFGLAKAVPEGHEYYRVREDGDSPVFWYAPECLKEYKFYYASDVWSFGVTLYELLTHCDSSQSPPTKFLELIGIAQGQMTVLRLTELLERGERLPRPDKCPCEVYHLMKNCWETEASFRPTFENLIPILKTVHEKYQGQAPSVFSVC

[4] = target: 3',5'-cyclic-AMP phosphodiesterase 4D (Homo sapiens, UniProt Q08499); assay: Inhibition of [3H]cAMP binding to recombinant human His-Tb fused PDE4D2 (86 to 413 residues) expressed in Escherichia coli using [3H]cAMP as substrate preincubated for 10 mins followed by [3H]cAMP addition and measured after 1 hr by scintillation proximity assay
JAK1/TYK2 = JAK1/TYK2 (Homo sapiens, UniProt P23458+P29597); assay: Inhibition of TYK2/JAK1 in IFNalpha-stimulated human Kit225 cells by steady-glo luciferase assay
Sequence of JAK1/TYK2 (P23458 whole entry): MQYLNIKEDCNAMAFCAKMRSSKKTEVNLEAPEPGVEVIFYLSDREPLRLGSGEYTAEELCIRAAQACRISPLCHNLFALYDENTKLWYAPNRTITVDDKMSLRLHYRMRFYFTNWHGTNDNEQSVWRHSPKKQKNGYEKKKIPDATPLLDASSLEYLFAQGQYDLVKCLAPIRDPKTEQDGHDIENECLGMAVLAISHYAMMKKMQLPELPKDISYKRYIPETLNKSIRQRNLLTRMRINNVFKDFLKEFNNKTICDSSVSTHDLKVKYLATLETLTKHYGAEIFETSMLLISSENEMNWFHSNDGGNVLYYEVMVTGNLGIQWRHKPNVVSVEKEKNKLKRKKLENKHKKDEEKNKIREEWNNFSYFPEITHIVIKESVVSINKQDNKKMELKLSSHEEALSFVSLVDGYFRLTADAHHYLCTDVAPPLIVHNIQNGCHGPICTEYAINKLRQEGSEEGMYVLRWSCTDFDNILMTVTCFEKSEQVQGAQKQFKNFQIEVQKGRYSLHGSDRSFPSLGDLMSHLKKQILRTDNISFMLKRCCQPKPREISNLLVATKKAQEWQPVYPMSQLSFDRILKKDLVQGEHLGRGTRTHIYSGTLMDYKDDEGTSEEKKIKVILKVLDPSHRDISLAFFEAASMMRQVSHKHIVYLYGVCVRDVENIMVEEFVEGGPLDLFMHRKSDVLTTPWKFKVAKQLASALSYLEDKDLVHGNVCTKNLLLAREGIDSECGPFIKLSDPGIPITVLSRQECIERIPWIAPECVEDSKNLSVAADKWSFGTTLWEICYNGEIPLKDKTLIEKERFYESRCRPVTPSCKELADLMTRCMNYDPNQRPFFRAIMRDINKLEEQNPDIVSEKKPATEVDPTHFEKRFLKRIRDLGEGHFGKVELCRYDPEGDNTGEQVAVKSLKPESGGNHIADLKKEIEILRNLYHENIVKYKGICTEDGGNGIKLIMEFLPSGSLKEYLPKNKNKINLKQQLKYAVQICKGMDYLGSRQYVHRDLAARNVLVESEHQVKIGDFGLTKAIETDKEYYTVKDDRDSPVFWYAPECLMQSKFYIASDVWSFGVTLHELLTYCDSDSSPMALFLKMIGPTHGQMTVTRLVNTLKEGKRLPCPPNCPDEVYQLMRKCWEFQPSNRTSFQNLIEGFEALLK
Sequence of JAK1/TYK2 (P29597 whole entry): as the sequence (P29597 whole entry, the tested form may be a part) above

[5] = Metabolic stability in human liver microsomes assessed as parent compound remaining after 10 mins; assay type: ADME, Microsome; details: read-out: Stability
[6] = Cmax in mouse at 10 mg/kg, po; assay type: ADME, organism-based; parameters: dose 10 mg/kg, route oral; details: in vivo
[7] = Metabolic stability in rat liver microsomes assessed as parent compound remaining after 10 mins; assay type: ADME, Microsome; details: read-out: Stability
[8] = target: T1, Non-receptor tyrosine-protein kinase TYK2; assay: Inhibition of TYK2 JH2 domain in human whole blood assessed as inhibition of IFNalpha-induced STAT5 phosphorylation preincubated for 1 hr followed by IFNalpha stimulation and measured after 15 mins by fluorescence assay; assay type: tissue-based
[9] = Metabolic stability in mouse liver microsomes assessed as parent compound remaining after 10 mins; assay type: ADME, Microsome; details: read-out: Stability
[10] = Permeability across apical to basolateral side in human Caco2 cells; assay type: ADME, cell-based; details: Caco-2, read-out: permeability
[11] = target: Tyrosine-protein kinase JAK2 (Homo sapiens, UniProt O60674); assay: Inhibition of JAK2 JH1 domain (unknown origin)
JAK3/JAK1 = JAK3/JAK1 (Homo sapiens, UniProt P23458+P52333); assay: Inhibition of JAK1/JAK3 (unknown origin) in IL-2 stimulated cells by cell based assay
[12] = target: T1, Non-receptor tyrosine-protein kinase TYK2; assay: Inhibition of TYK2 JH1 domain (unknown origin)
JAK2/JAK1 = JAK2/JAK1 (Homo sapiens, UniProt O60674+P23458); assay: Inhibition of JAK1/JAK2 (unknown origin) in GM-CSF stimulated cells by cell based assay
[13] = target: Tyrosine-protein kinase JAK1 (Homo sapiens, UniProt P23458); assay: Inhibition of JAK1 JH1 domain (unknown origin)
Sequence of Tyrosine-protein kinase JAK1 (P23458 whole entry, the tested form may be a part): as the sequence (P23458 whole entry) above

[14] = Protein binding in human plasma assessed as unbound fraction; assay type: ADME, cell-free
[15] = target: Non-receptor tyrosine-protein kinase TYK2 (Mus musculus, UniProt Q9R117); assay: Inhibition of TYK2 JH2 domain in mouse whole blood assessed as inhibition of IFNalpha-induced STAT1 phosphorylation preincubated for 1 hr followed by IFNalpha stimulation and measured after 15 mins by fluorescence assay; assay type: tissue-based
Sequence of Non-receptor tyrosine-protein kinase TYK2 (Mus musculus, UniProt Q9R117) (Q9R117 whole entry, the tested form may be a part): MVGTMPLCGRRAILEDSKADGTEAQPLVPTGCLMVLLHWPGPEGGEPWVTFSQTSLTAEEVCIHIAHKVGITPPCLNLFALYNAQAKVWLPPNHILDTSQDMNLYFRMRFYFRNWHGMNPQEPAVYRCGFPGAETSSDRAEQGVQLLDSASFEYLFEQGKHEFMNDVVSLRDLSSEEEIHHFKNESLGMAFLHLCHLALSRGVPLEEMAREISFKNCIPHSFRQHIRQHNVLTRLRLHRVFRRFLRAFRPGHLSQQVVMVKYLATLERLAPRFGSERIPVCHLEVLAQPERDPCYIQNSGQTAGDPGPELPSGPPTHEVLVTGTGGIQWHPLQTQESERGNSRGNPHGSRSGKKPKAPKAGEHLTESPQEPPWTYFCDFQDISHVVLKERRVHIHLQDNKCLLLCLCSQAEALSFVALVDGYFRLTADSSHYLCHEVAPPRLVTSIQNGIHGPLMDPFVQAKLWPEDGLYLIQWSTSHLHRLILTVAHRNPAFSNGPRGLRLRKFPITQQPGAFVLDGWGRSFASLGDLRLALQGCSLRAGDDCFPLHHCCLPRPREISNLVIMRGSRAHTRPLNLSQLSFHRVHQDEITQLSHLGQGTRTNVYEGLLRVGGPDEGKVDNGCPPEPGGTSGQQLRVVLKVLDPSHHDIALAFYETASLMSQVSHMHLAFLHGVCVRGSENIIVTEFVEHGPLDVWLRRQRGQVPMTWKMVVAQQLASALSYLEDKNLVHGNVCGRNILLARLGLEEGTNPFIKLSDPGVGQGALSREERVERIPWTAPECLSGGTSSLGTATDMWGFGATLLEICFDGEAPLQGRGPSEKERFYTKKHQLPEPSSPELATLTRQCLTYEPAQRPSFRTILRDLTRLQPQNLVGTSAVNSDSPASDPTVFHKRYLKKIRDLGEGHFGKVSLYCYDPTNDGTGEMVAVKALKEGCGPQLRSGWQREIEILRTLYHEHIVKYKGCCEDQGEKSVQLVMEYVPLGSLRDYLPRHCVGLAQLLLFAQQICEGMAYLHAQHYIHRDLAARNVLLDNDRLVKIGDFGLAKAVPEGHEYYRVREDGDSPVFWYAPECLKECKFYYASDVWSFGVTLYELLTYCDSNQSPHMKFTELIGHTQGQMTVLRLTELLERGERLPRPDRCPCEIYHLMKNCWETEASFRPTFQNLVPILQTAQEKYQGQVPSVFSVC

[16] = Half life in human liver microsomes; assay type: ADME, Microsome
[17] = target: T1, Non-receptor tyrosine-protein kinase TYK2; assay: Inhibition of TYK2 JH2 (unknown origin) by morrison titration assay; details: read-out: Ki(app)
[18] = target: T2, Voltage-gated inwardly rectifying potassium channel KCNH2 (Homo sapiens, UniProt Q12809); assay: Inhibition of human ERG by patch clamp assay
T2 sequence (Q12809 whole entry): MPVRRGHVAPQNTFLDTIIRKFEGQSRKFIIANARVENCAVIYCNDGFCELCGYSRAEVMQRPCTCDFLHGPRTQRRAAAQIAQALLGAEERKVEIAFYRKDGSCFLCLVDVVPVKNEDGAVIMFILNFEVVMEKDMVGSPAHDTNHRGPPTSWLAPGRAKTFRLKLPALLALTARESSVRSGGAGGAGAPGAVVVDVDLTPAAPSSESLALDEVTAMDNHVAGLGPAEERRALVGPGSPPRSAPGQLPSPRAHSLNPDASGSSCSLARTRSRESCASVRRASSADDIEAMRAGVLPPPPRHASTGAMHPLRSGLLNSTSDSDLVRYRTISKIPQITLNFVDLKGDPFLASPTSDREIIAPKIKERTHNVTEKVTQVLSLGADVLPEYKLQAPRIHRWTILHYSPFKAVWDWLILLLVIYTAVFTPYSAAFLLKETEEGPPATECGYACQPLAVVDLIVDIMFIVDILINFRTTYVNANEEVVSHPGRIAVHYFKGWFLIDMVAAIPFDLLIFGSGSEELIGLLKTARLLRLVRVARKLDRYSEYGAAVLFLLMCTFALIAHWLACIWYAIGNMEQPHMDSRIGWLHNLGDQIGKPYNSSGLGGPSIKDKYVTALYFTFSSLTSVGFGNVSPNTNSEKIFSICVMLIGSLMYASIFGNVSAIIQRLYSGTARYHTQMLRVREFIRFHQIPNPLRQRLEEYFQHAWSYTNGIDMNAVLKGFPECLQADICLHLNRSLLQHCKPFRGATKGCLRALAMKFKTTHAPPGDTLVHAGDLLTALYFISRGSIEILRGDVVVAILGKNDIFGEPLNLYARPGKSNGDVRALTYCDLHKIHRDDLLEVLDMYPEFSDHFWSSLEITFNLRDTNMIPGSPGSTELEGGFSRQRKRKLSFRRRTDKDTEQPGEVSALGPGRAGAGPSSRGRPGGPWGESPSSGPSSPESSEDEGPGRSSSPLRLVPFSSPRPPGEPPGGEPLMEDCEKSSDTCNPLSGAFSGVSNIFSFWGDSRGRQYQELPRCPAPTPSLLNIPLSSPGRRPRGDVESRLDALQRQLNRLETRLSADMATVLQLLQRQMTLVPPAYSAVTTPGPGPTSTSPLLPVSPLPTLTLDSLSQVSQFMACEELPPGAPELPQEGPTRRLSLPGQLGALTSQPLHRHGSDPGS

[19] = Half life in mouse liver microsomes; assay type: ADME, Microsome
[20] = Cmax in mouse at 10 mg/kg, po after 7 hrs; assay type: ADME, organism-based; parameters: dose 10 mg/kg, route oral; details: in vivo
[21] = Half life in dog liver microsomes; assay type: ADME, Canis lupus familiaris, Microsome
[22] = Half life in rat liver microsomes; assay type: ADME, Microsome
[23] = Half life in cynomolgus monkey liver microsomes; assay type: ADME, Macaca fascicularis, Microsome
[24] = Partition coefficient, log P of compound by HPLC analysis; assay type: physicochemical; details: octanol/water
[25] = AUClast in mouse at 10 mg/kg, po after 7 hrs; assay type: ADME, organism-based; parameters: time < 7 hr, dose 10 mg/kg, route oral; details: in vivo
[26] = Metabolic stability in pooled human liver microsomes at 0.5 uM after 10 mins by UV based analysis; assay type: ADME, Microsome; details: read-out: Stability
[27] = Metabolic stability in pooled mouse liver microsomes at 0.5 uM after 10 mins by UV based analysis; assay type: ADME, Microsome; details: read-out: Stability
[28] = target: T1, Non-receptor tyrosine-protein kinase TYK2; assay: Inhibition of TYK2 JH2 (unknown origin) by Scintillation proximity assay
[29] = target: T3, Inhibitor of nuclear factor kappa-B kinase subunit beta (Homo sapiens) (UniProt O14920); assay: Inhibition of IKKbeta (unknown origin)
T3 sequence (whole entry): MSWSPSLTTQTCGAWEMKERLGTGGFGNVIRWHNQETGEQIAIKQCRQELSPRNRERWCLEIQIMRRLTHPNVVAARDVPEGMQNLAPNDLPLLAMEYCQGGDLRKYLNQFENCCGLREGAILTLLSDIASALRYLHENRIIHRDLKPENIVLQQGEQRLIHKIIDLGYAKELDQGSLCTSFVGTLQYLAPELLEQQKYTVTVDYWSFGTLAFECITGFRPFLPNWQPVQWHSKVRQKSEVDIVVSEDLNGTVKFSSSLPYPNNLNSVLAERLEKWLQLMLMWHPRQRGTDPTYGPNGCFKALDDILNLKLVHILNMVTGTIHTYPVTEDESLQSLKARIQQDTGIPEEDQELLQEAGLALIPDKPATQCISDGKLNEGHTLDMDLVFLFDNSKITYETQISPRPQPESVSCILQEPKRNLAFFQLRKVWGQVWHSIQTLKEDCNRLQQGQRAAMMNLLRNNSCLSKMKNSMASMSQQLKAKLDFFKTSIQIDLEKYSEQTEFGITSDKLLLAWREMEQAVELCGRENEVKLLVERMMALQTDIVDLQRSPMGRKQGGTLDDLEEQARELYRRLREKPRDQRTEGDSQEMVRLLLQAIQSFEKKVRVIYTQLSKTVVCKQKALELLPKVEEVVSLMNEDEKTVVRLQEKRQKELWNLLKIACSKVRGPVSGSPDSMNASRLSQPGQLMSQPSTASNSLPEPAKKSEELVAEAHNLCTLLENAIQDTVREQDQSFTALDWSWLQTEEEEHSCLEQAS

Mus musculus [30] = assay: Antiinflammatory activity in B6 CB17 mouse model of CD40-induced colitis assessed as reduction in colitis severity at 250 mg/kg, po BID administered as nanosuspension; assay type: functional, organism-based; details: tested as the 2H-labelled form
Mus musculus [31] = assay: Antiinflammatory activity in po dosed B6 CB17 mouse model of CD40-induced colitis assessed as inhibition of body weight loss administered twice daily as nanosuspension; assay type: functional, organism-based; details: tested as the 2H-labelled form
Mus musculus [32] = assay: Antiinflammatory activity in B6 CB17 mouse model of CD40-induced colitis assessed as reduction in colitis damage at 250 mg/kg, po BID administered as nanosuspension; assay type: functional, organism-based; details: tested as the 2H-labelled form
Mus musculus [33] = assay: Inhibition of IL12/IL18-induced IFNgamma production in po dosed C57BL/6 mouse pretreated for 1 hr followed by IL12 stimulation and subsequent IL18 addition and measured after 3 hrs; assay type: functional, organism-based; details: tested as the 2H-labelled form
Mus musculus [34] = assay: Antiinflammatory activity in B6 CB17 mouse model of CD40-induced colitis assessed as reduction in inflammation at 250 mg/kg, po BID administered as nanosuspension; assay type: functional, organism-based; details: tested as the 2H-labelled form
[35] = target: Mast/stem cell growth factor receptor Kit (Homo sapiens, UniProt P10721); assay: Inhibition of cKIT (unknown origin)
[36] = target: T2, Voltage-gated inwardly rectifying potassium channel KCNH2; assay: Inhibition of human ERG by fluorescence polarization assay

SMILES: CNC(=O)c1cnc(Nc2ccc(F)cn2)cc1Nc1ccc(F)c(F)c1OC
- AUC(0-t) [1]: 4 µM·h
- efflux ratio [2]: 0.5
- IC50 (JAK2/TYK2): 380 nM
- IC50 [3]: 1.5 nM
- IC50 [4]: 7400 nM
- IC50 (JAK1/TYK2): 220 nM
- remaining at 10 min [5]: 57%
- Cmax [6]: 1600 nM
- remaining at 10 min [7]: 73%
- IC50 [8]: 2400 nM
- remaining at 10 min [9]: 58%
- Papp A→B [10]: 4.1 ×10⁻⁶ cm/s

SMILES: CNC(=O)c1cnc(Nc2ccc(F)cn2)cc1Nc1ccccc1C(N)=O
- IC50 [11]: > 2000 nM
- AUC(0-t) [1]: 0.15 µM·h
- efflux ratio [2]: > 35
- IC50 (JAK2/TYK2): 660 nM
- IC50 [3]: 1.3 nM
- IC50 (JAK3/JAK1): > 12500 nM
- IC50 [4]: 10400 nM
- IC50 (JAK1/TYK2): 320 nM
- IC50 [12]: > 2000 nM
- IC50 (JAK2/JAK1): > 12500 nM
- remaining at 10 min [5]: 94%
- IC50 [13]: > 2000 nM
- Cmax [6]: 36 nM
- remaining at 10 min [7]: 83%
- IC50 [8]: 530 nM
- remaining at 10 min [9]: 82%
- fraction unbound [14]: 0.263
- Papp A→B [10]: < 1.5 ×10⁻⁶ cm/s

SMILES: [2H]C([2H])([2H])NC(=O)c1nnc(NC(=O)C2CC2)cc1Nc1ccccc1S(C)(=O)=O
- IC50 [11]: > 50000 nM
- efflux ratio [2]: 7.7
- IC50 [15]: 340 nM
- half-life [16]: 110 min
- Ki [17]: 0.8 nM
- IC50 [18]: > 30000 nM
- IC50 [3]: 1.3 nM
- half-life [19]: 48 min
- Cmax [20]: 3420 nM
- IC50 (JAK1/TYK2): 1.3 nM
- half-life [21]: 75 min
- IC50 [12]: 50000 nM
- half-life [22]: 81 min
- half-life [23]: 67 min
- IC50 [13]: > 2000 nM
- logP [24]: 2.03
- IC50 [8]: 230 nM
- AUC(0-t) at 7 h [25]: 6.61 µM·h
- Papp A→B [10]: 6.9 ×10⁻⁶ cm/s

SMILES: NC(=O)c1ccccc1Nc1cc(Nc2ccc(F)cn2)ncc1C(N)=O
- IC50 [11]: 24 nM
- IC50 (JAK2/TYK2): 89 nM
- remaining at 10 min, 0.5 µM [26]: > 80%
- Ki [17]: 0.06 nM
- IC50 [3]: 0.46 nM
- remaining at 10 min, 0.5 µM [27]: > 80%
- IC50 (JAK3/JAK1): 400 nM
- IC50 (JAK1/TYK2): 37 nM
- EC50 [28]: 6.6 nM
- IC50 [12]: 15 nM
- IC50 (JAK2/JAK1): 210 nM
- IC50 [13]: 26 nM
- inhibition [29]: inactive

SMILES: [2H]C([2H])([2H])NC(=O)c1nnc(Nc2ccc(F)cn2)cc1Nc1ccccc1S(C)(=O)=O
- efflux ratio [2]: 3.4
- IC50 [15]: 380 nM
- half-life [16]: 71 min
- IC50 [3]: 0.58 nM
- half-life [19]: 50 min
- Cmax [20]: 3890 nM
- half-life [21]: 32 min
- half-life [22]: 80 min
- half-life [23]: 10 min
- logP [24]: 2.77
- IC50 [8]: 200 nM
- AUC(0-t) at 7 h [25]: 11.6 µM·h
- Papp A→B [10]: 14.3 ×10⁻⁶ cm/s

SMILES: CNC(=O)c1nnc(Nc2ccccn2)cc1Nc1ccccc1S(C)(=O)=O
- Activity (Mus musculus [30]): Active
- inhibition (Mus musculus [31]): Dose-dependent effect
- Activity (Mus musculus [32]): Active
- inhibition (Mus musculus [33]): Dose-dependent effect
- Activity (Mus musculus [34]): Active

SMILES: CNC(=O)c1cnc(Nc2ccccn2)cc1Nc1ccccc1S(C)(=O)=O
- efflux ratio [2]: 9.8
- IC50 (JAK2/TYK2): 71 nM
- IC50 [15]: 340 nM
- half-life [16]: 53 min
- IC50 [35]: 630 nM
- IC50 [3]: 0.95 nM
- half-life [19]: 14 min
- Cmax [20]: 1860 nM
- IC50 (JAK1/TYK2): 57 nM
- half-life [21]: 13 min
- half-life [22]: 25 min
- half-life [23]: 3 min
- IC50 [36]: 36000 nM
- logP [24]: 2.24
- IC50 [8]: 250 nM
- AUC(0-t) at 7 h [25]: 4.29 µM·h
- Papp A→B [10]: 10.2 ×10⁻⁶ cm/s

SMILES: CNC(=O)c1cnc(Nc2ccc(N3CCOCC3)cn2)cc1Nc1ccccc1S(C)(=O)=O
- efflux ratio [2]: > 26
- IC50 (JAK2/TYK2): 71 nM
- IC50 [35]: > 2000 nM
- IC50 (JAK1/TYK2): 59 nM
- IC50 [36]: 40000 nM
- IC50 [8]: 58 nM
- Papp A→B [10]: < 1.5 ×10⁻⁶ cm/s

SMILES: CNC(=O)c1cnc(NC(=O)C2CC2)cc1Nc1ccccc1S(C)(=O)=O
- efflux ratio [2]: 29
- IC50 (JAK2/TYK2): 430 nM
- IC50 [15]: 830 nM
- half-life [16]: > 120 min
- IC50 [35]: > 2000 nM
- IC50 [3]: 1.6 nM
- half-life [19]: 10 min
- Cmax [20]: 190 nM
- IC50 (JAK1/TYK2): 390 nM
- half-life [21]: 34 min
- half-life [22]: 115 min
- half-life [23]: 108 min
- IC50 [36]: > 80000 nM
- logP [24]: 1.89
- IC50 [8]: 310 nM
- AUC(0-t) at 7 h [25]: 0.56 µM·h
- Papp A→B [10]: 1.7 ×10⁻⁶ cm/s
